Test results taken from ChEMBL document CHEMBL1201862, “PubChem BioAssay data set” (2004).
Active and inactive are the calls of the source.

What was measured:
[1] = target: T1, Sentrin-specific protease 7 (Homo sapiens, UniProt Q9BQF6); assay: SENP7 protease inhibitors, SAR follow-up, biochemical, luminescence (AID 504497); format: functional
T1 sequence (Q9BQF6 whole entry): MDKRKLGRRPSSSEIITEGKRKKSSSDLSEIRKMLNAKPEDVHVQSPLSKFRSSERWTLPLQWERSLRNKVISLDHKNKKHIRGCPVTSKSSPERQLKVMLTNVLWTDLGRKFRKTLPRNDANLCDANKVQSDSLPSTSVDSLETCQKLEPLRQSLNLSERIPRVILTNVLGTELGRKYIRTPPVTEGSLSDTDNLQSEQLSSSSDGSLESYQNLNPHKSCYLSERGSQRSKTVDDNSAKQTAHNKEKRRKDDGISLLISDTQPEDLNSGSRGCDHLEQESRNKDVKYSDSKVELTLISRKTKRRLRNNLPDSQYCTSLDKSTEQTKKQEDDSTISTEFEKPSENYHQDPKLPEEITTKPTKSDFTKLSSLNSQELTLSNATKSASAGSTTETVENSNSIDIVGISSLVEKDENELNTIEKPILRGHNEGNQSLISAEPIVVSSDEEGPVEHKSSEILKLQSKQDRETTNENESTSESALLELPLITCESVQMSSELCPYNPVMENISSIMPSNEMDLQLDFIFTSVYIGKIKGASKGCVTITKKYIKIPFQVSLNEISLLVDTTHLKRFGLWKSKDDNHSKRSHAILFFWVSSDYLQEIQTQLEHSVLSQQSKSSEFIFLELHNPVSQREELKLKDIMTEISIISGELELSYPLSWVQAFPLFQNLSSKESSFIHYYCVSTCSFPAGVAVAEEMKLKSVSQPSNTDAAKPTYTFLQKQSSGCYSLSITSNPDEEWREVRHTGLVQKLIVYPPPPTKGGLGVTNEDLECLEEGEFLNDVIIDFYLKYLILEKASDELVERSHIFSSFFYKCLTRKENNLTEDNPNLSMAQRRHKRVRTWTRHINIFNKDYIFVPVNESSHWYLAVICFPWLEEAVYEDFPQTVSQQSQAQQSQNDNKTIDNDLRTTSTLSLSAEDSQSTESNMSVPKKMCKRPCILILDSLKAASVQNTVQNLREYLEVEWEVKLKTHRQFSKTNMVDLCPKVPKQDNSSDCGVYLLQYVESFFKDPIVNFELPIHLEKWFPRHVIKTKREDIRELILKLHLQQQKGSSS

[2] = target: T2, Sentrin-specific protease 6 (Homo sapiens, UniProt Q9GZR1); assay: SAR Analysis of small molecule inhibitors of Sentrin-specific protease 6 (SENP6) using a Luminescent assay. [Related pubchem assays (depositor defined):AID2582, AID2599]; format: functional
T2 sequence (Q9GZR1 whole entry): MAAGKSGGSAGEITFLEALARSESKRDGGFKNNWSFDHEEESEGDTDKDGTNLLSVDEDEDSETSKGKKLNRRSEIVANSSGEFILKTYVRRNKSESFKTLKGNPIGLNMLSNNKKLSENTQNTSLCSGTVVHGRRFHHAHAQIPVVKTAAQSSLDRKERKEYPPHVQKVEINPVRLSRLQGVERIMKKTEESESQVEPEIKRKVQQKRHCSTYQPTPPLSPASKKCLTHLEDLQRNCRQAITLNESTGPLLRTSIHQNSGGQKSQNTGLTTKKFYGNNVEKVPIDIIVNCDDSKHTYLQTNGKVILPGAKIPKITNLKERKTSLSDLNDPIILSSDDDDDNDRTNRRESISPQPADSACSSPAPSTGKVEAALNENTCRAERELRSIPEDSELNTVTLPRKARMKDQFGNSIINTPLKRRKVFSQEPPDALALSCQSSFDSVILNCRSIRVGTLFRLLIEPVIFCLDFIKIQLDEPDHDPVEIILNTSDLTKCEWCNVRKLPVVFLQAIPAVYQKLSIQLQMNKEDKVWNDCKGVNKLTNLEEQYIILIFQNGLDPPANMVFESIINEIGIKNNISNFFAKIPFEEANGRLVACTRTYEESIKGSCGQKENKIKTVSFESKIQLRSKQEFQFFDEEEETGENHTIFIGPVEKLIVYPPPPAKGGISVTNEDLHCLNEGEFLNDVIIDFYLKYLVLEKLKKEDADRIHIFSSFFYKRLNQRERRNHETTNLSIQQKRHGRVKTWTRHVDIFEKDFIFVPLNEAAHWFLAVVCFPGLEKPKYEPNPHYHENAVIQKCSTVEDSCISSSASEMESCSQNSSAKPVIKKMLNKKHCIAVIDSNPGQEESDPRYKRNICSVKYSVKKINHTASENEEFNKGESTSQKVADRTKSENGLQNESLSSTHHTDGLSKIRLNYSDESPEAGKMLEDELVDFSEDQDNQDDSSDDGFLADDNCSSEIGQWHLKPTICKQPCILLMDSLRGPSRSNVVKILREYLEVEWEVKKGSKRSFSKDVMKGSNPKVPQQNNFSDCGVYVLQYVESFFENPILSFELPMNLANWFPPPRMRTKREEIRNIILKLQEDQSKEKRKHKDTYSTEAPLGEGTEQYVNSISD

[3] = target: T3, Sentrin-specific protease 8 (Homo sapiens, UniProt Q96LD8); assay: SENP8 protease inhibitors, SAR follow-up, biochemical, luminescence (AID 504501); format: functional
T3 sequence (Q96LD8 whole entry): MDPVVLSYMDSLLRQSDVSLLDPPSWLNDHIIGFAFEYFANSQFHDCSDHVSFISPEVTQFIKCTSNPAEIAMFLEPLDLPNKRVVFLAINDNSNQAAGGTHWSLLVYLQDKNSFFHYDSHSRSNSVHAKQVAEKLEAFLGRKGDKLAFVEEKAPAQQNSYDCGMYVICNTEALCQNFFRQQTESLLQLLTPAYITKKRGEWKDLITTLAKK

[4] = target: T4, Caspase-3 (Homo sapiens, UniProt P42574); assay: SAR Analysis of small molecule inhibitors of Sentrin-specific proteases (SENPs) using a Caspase-3 Selectivity assay. [Related pubchem assays (depositor defined):AID2540, AID2599, AID434973, AID489001]; format: functional
T4 sequence (P42574 whole entry): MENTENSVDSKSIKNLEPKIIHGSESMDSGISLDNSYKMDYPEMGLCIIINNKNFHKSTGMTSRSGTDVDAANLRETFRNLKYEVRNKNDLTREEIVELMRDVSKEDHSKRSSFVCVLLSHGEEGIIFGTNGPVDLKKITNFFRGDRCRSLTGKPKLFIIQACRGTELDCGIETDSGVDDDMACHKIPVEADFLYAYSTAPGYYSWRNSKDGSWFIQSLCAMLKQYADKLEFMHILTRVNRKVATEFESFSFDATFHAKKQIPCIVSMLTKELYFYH

[5] = target: T5, Cytochrome P450 1A2 (Homo sapiens, UniProt P05177);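 further: PubChem cytochrome P450 panel assay, CYP1A2 panel member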
T5 sequence (P05177 whole entry): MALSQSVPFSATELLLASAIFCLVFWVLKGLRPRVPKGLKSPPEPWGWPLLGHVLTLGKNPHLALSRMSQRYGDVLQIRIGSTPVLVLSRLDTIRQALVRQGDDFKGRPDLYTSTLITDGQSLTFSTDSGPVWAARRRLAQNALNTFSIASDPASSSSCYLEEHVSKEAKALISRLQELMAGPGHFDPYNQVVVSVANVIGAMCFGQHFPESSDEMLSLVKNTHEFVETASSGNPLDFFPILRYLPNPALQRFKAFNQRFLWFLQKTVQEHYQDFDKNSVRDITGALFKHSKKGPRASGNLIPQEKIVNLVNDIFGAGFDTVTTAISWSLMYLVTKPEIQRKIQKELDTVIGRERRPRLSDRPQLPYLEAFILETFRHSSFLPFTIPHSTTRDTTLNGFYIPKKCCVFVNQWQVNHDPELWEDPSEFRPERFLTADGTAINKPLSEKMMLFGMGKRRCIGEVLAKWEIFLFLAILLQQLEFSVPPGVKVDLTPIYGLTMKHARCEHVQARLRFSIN

[6] = target: Cytochrome P450 2D6 (Homo sapiens, UniProt P10635);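 further: CYP2D6 member of a cytochrome P450 panel assay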
[7] = target: Adenosylmethionine-8-amino-7-oxononanoate aminotransferase (Mycobacterium tuberculosis, UniProt P9WQ81); assay: Mycobacterium tuberculosis BioA enzyme inhibitor Measured in Biochemical System Using Plate Reader - 2163-02_Inhibitor_Dose_CherryPick_Activity.; format: functional, Mycobacterium tuberculosis UT205
[8] = target: Protein Wnt-3a (Mus musculus, UniProt P27467); assay: Wnt3a-driven reporter signaling inhibition, dose response, selectivity assay for Gli-SUFU antagonist project, Wnt-LIGHT cells, luminescence (AID 651570); format: functional; conditions: read-out: IC50_Mean;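 further: Wnt-LIGHT reporter cells stimulated with conditioned medium from Wnt3a-producing cells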
[9] = target: T6, Endoribonuclease toxin MazF (Escherichia coli K-12, UniProt P0AE70); assay: fluorescent RNA oligo signal without MazF, dose response, counter-screen for MazEF activator project, biochemical, fluorescence, single-stranded RNase substrate (AID 588502); format: functional
T6 sequence (P0AE70 whole entry): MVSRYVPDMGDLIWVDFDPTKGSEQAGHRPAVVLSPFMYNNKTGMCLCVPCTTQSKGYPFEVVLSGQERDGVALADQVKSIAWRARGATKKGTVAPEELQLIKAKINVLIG

[10] = target: T6, Endoribonuclease toxin MazF; assay: MazF toxin RNase activators, dose response, biochemical, fluorescence, single-stranded RNA substrate, uHTS hits (AID 588481); format: functional
[11] = target: Glycogen synthase kinase-3 beta (Homo sapiens, UniProt P49841); format: functional;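 further: value comes from a broad kinome profiling panel, with GSK3B as the panel member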
[12] = target: Cell division cycle 7-related protein kinase (Homo sapiens, UniProt O00311); format: functional;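 further: value obtained from a kinome-wide kinase panel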
[13] = target: Dual specificity protein kinase CLK4 (Homo sapiens, UniProt Q9HAZ1); format: functional
[14] = target: cAMP-dependent protein kinase catalytic subunit alpha (Homo sapiens, UniProt P17612); format: functional
[15] = target: Homeodomain-interacting protein kinase 2 (Homo sapiens, UniProt Q9H2X6); format: functional;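 further: measured within a kinome-wide kinase profiling panel, HIPK2 being one panel member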
[16] = target: T7, Interleukin-1 receptor-associated kinase 4 (Homo sapiens, UniProt Q9NWZ3); format: functional
T7 sequence (Q9NWZ3 whole entry): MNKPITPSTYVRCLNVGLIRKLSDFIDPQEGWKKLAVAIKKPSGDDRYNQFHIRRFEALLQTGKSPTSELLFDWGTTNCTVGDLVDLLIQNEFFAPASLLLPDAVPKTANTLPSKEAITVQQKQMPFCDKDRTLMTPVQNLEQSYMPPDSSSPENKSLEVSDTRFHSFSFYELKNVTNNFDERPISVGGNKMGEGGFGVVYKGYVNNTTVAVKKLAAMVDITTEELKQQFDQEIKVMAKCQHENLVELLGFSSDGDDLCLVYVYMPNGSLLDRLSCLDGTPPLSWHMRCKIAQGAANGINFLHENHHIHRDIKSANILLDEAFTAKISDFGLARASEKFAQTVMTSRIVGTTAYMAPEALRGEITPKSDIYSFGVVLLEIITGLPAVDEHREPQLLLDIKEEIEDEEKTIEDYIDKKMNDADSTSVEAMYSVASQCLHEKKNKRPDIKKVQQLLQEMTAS

[17] = target: Serine/threonine-protein kinase pim-1 (Homo sapiens, UniProt P11309); format: functional
Chain of Serine/threonine-protein kinase pim-1 (P11309 whole entry): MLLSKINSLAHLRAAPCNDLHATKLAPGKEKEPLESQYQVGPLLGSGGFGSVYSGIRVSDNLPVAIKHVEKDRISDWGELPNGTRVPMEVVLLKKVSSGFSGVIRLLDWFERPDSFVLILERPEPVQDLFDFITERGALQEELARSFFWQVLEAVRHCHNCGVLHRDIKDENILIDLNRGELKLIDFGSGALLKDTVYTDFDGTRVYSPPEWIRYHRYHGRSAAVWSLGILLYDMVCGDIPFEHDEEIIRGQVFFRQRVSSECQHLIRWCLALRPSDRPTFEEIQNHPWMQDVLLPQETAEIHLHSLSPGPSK

Chain of Protein Wnt-3a (P27467 whole entry): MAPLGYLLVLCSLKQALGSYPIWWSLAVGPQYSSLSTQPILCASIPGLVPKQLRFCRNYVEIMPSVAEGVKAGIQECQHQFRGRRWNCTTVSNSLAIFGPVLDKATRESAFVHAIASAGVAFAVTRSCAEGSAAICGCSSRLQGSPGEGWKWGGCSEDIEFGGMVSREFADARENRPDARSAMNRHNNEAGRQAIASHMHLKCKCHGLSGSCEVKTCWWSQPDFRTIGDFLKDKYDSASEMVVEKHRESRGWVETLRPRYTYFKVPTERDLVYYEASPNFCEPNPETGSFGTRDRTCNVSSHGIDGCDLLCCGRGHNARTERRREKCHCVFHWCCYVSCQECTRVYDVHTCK
Chain of Adenosylmethionine-8-amino-7-oxononanoate aminotransferase (P9WQ81 whole entry): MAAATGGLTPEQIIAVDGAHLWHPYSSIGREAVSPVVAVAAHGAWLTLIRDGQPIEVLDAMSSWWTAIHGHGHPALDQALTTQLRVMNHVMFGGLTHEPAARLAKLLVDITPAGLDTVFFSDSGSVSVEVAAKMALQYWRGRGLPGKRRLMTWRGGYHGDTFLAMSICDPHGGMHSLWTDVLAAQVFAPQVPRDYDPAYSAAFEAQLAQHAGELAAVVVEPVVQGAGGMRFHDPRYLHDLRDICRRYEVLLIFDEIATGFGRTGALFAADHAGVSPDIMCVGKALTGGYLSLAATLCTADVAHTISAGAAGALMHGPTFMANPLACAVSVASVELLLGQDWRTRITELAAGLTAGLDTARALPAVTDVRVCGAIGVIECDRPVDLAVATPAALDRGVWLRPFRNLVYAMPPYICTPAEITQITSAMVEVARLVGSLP
Chain of Glycogen synthase kinase-3 beta (P49841 whole entry): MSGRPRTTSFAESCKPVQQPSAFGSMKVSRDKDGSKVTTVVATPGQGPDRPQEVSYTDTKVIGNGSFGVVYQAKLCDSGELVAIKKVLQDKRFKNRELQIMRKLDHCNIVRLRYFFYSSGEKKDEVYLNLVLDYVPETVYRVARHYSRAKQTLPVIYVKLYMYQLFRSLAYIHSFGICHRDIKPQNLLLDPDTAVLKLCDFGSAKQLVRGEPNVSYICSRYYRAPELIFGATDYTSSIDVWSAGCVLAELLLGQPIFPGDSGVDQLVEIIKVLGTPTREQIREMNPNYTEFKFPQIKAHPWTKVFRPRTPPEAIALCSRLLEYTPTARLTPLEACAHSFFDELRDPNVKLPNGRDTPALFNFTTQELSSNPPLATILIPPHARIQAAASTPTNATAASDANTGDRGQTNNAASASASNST
Chain of Homeodomain-interacting protein kinase 2 (Q9H2X6 whole entry): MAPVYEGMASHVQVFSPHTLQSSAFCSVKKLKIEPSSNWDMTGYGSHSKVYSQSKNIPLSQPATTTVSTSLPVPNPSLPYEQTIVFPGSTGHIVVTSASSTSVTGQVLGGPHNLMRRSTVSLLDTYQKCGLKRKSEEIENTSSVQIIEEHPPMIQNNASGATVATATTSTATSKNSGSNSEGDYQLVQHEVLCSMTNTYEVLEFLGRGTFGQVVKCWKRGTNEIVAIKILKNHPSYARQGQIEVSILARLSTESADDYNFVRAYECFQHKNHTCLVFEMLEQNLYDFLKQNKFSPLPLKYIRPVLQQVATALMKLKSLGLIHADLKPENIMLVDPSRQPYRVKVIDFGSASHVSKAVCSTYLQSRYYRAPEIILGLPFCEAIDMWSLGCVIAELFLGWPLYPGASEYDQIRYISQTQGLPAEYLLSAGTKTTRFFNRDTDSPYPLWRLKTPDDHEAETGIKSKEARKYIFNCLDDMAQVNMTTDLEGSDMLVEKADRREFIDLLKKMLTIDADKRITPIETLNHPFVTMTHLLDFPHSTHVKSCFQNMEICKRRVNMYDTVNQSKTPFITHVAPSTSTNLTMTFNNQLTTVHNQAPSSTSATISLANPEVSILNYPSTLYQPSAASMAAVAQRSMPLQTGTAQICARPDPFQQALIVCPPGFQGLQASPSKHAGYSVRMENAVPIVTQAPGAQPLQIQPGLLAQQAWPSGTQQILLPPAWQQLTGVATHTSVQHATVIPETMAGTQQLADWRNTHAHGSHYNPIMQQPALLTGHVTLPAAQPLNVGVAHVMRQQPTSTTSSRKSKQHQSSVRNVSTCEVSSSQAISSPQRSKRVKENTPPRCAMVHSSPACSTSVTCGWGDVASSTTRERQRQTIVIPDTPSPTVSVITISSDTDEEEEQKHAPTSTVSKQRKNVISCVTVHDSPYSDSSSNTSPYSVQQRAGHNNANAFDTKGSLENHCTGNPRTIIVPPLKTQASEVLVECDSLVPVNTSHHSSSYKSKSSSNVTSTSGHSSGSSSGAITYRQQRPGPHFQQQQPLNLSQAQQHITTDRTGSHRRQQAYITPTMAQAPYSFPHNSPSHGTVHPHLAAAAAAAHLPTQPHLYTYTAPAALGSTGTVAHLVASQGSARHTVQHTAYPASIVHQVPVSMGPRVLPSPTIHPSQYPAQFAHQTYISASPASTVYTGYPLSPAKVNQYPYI
Chain of Cell division cycle 7-related protein kinase (O00311 whole entry): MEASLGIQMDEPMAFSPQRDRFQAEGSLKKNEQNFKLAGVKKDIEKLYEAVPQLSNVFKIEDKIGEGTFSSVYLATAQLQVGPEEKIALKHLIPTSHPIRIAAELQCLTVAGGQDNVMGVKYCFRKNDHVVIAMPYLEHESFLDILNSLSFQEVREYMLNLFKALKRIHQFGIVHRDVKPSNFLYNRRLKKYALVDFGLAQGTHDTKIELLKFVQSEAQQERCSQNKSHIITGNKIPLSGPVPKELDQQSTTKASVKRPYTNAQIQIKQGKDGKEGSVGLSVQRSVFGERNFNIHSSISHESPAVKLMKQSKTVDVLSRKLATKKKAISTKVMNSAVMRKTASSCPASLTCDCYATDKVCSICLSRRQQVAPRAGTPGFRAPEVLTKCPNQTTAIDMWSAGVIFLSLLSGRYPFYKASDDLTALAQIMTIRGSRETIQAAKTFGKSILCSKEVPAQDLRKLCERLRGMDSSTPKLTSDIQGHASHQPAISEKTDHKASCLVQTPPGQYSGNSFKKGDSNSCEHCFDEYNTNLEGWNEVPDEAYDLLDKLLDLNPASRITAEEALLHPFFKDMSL
Chain of Dual specificity protein kinase CLK4 (Q9HAZ1 whole entry): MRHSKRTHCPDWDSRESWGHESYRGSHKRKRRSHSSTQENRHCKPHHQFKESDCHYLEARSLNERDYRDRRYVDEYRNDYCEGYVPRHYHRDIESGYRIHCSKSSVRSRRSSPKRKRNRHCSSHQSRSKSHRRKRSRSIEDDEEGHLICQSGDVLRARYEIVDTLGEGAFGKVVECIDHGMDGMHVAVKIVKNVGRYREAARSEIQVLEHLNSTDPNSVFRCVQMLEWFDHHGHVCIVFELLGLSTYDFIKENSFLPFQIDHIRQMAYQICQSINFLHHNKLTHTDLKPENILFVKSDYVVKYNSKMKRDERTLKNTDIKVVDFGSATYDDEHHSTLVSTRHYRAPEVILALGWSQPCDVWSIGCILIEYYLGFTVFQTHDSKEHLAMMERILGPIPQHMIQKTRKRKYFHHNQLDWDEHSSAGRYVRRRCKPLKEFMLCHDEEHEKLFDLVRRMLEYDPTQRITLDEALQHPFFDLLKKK
Chain of Cytochrome P450 2D6 (P10635 whole entry): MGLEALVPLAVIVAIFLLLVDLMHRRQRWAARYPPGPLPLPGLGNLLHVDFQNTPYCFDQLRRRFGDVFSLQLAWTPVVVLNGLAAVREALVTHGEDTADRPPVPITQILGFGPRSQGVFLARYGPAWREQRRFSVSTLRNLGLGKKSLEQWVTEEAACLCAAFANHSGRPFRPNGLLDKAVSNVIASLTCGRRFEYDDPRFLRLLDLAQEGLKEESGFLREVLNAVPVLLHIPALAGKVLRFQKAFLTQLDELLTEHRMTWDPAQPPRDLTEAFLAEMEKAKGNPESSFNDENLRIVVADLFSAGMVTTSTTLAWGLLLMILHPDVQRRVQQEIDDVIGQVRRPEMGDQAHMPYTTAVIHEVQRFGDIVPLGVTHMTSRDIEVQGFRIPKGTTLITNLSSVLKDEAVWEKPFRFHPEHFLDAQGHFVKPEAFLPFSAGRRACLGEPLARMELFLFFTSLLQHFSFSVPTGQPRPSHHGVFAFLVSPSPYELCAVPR

For `O=C(Nc1ccc(-c2nc3cc(Cl)ccc3o2)cc1)c1ccccc1`, the IC50 [1] was > 99 µM (inactive), the IC50 [2] was > 99 µM (inactive) and the IC50 [3] was > 99 µM (inactive). For the same molecule, the IC50 [4] was > 99 µM (inactive).

In the case of `Cc1nc2nc(SCC(=O)NCc3ccco3)nn2c(C)c1Cc1c(F)cccc1Cl`, the AC50 [5] is reported as 20 µM (inconclusive), the AC50 [6] is reported as 28.2 µM (inconclusive) and the AC50 [7] is reported as 1.38 µM (active).

With `C=CCn1c(COc2ccccc2F)nnc1SCCN1C(=O)c2ccccc2C1=O` the AC50 [7] was 7.95 µM (active).

In the case of `CCCn1c(SCC(=O)Nc2nc(-c3ccc(OC)cc3)cs2)nc2c1c(=O)n(C)c(=O)n2C`, the IC50 [8] is reported as 1.32 µM (active), the EC50 [9] is reported as > 99 µM (inactive) and the EC50 [10] is reported as > 99 µM (inactive).

With `NC(=O)c1ccc(-c2ccnc(N)n2)cc1N1CCCCC1` the Ki [11] was 1 µM (active), the Ki [12] was 0.00794 µM (active) and the Ki [13] was 0.00316 µM (active). The Ki [14] was > 7.94 µM (inactive), the Ki [15] was > 3.16 µM (inactive) and the Ki [16] was 5.01 µM (active). The Ki [17] was > 10 µM (inactive).

`CCN(CC)S(=O)(=O)c1ccc(C)c(NC(=S)N2CCN(Cc3ccc4c(c3)OCO4)CC2)c1` was tested, and the IC50 [8] was 2.35 µM (active).

With `O=C(Nc1ccc(Oc2ccccc2)cc1)c1ccc2c(c1)OCO2` the IC50 [1] was 1.06 µM (active), the IC50 [2] was 1.55 µM (active) and the IC50 [3] was 2.2 µM (active). For the same molecule, the IC50 [4] was 1.99 µM (active).

`Clc1ccc(N/N=C/c2cn(Cc3ccccc3)c3ccccc23)cc1` was tested, and the IC50 [1] was > 99 µM (inactive), the IC50 [2] was > 99 µM (inactive) and the IC50 [3] was > 99 µM (inactive). The IC50 [4] was > 99 µM (inactive).
